Marks after values point to notes of the source that are not given here.
Assays:
male Sprague-Dawley rats [1] = test: Feed and weight measurements in male Sprague-Dawley rats injected for 6 weeks; assay type: in vivo, rat; settings: for Fat Weight: visceral fat
Method: (§1) Forty male Sprague-Dawley rats (5 wk old, n=9-10 rats/treatment, from Harlan Sprague-Dawley, Inc., Indianapolis, Ind.) were injected with either genistein (G), daidzein (D), estradiol (E), or a vehicle control (V). Each animal in group V received a daily 0.1 cc subcutaneous injection, for six weeks, of a 10% ethanol-90% olive oil solution; the other treatments received their respective compound as a daily 0.1 cc subcutaneous injection, for six weeks, e.g., 0.1 μg of compound/g of body weight, in a 10% ethanol-90% olive oil solution.
Animal weight and feed intake were measured weekly during the six week study, and the subsequent feed-efficiency ratio [FER (g of weight change/g of feed intake)] was determined. Following sacrifice, the abdominal fat pads, liver, and reproductive organs were removed and weighed for comparison.
(§2) These studies used a randomized design. All data were analyzed by one-way analysis of variance (ANOVA) and post-hoc comparisons were made with Tukey pairwise comparisons test. Significance was confirmed at P≦0.05 (SYSTAT 7.0, SPSS INC., 1997), and all values are reported as means±standard error of the mean.

male Sprague-Dawley rats [2] = test: Liver weight, cholesterol and triglyceride in male Sprague-Dawley rats injected for 6 weeks; assay type: in vivo, rat; settings: for Liver total triglycerides: as triolein; for Liver total triglycerides / Liver cholesteryl esters / Liver total cholesterol / Liver unesterified cholesterol / Liver weight: daily s.c. injection, 6 weeks; for liver weight as a % of body weight, compared with V: rat, in vivo
Method: (§3) Forty male Sprague-Dawley rats (5 wk old, n=9-10 rats/treatment, from Harlan Sprague-Dawley, Inc., Indianapolis, Ind.) were injected with either genistein (G), daidzein (D), estradiol (E), or a vehicle control (V). Each animal in group V received a daily 0.1 cc subcutaneous injection, for six weeks, of a 10% ethanol-90% olive oil solution; the other treatments received their respective compound as a daily 0.1 cc subcutaneous injection, for six weeks, e.g., 0.1 μg of compound/g of body weight, in a 10% ethanol-90% olive oil solution. Animal weight and feed intake were measured weekly during the six week study, and the subsequent feed-efficiency ratio [FER (g of weight change/g of feed intake)] was determined. Following sacrifice, the abdominal fat pads, liver, and reproductive organs were removed and weighed for comparison. Collected blood was heparinized and centrifuged, plasma aliquots were then used for glucose and total cholesterol determinations, using standard glucose oxidase (Fisher Scientific, St. Louis, Mo.) and cholesterol kits (Fisher Scientific, St. Louis, Mo.). Liver cholesterol and triglyceride analysis. Analytical procedures for determination of liver total cholesterol, unesterified cholesterol, cholesteryl ester, and triglyceride concentrations were as described in Example 1. These studies used a randomized design. All data were analyzed by one-way analysis of variance (ANOVA) and post-hoc comparisons were made with Tukey pairwise comparisons test. Significance was confirmed at P≦0.05 (SYSTAT 7.0, SPSS INC., 1997), and all values are reported as means±standard error of the mean.

[3] = system: Cu,Zn superoxide Dimutase (SOD); test: Liver Cu,Zn superoxide dimutase activity in injected rats; assay type: in vivo, rat; settings: daily s.c. injection, 6 weeks; P<0.05
Method: as §1
The activity or level of antioxidant enzymes (AOE), catalase (CAT) and Cu,Zn superoxide Dimutase (SOD) in rat liver, were measured to determine the effect of administration of G, D, and E injections on free radical defense systems. A 50 mg piece of whole frozen liver was removed and sonicated in TBS plus 1% Triton X-100. The samples were then centrifuged at 13,000×g for 25 min at 4° C., and the supernatant was collected. Total protein concentration was assayed for subsequent determinations of hepatic AOE activity or absolute level per milligram total protein. SOD activity was determined by spectrophotometry at I=560 nm using xanthine/xanthine oxidase as a superoxide generator and measured against a standard curve of known SOD activities (Sun et al. 1988, 1994). Catalase levels were determined bv Slot blot, which was performed following a representative Western blot that detected no nonspecific binding (Tobin et al. 1979). The bands corresponding to catalase were quantified by densitometry.
as §2

male Sprague-Dawley rats [4] = test: Plasma glucose and plasma total cholesterol in male Sprague-Dawley rats injected for 6 weeks; assay type: in vivo, rat; settings: 6 weeks injection
Method: as §3, with “solution.” for “solution. Animal weight and feed intake were measured weekly during the six week study, and the subsequent feed-efficiency ratio [FER (g of weight change/g of feed intake)] was determined. Following sacrifice, the abdominal fat pads, liver, and reproductive organs were removed and weighed for comparison.”

[5] = system: stenotic arteries of female macaques; settings: intravenous infusion; cited from earlier work

Structure (SMILES)	Body Weight (male Sprague-Dawley rats [1]; daily s.c. injection, 6 weeks)	Fat Weight (male Sprague-Dawley rats [1]; daily s.c. injection, 6 weeks)	Liver triglyceride concentrations compared to the E treatment (male Sprague-Dawley rats [2]; P<0.05)	Liver weights vs the V group (male Sprague-Dawley rats [2]; P<0.05)	Liver total triglycerides (male Sprague-Dawley rats [2])	Liver cholesteryl esters (male Sprague-Dawley rats [2])	Liver total cholesterol (male Sprague-Dawley rats [2])	Liver unesterified cholesterol (male Sprague-Dawley rats [2]) [μmol/g liver]	Liver weight (male Sprague-Dawley rats [2])	liver weight as a % of body weight, compared with V (male Sprague-Dawley rats [2])	elevation of liver SOD activity over vehicle controls [3]	Prostate Weight (male Sprague-Dawley rats [1]; daily s.c. injection, 6 weeks)	Testis Weight (male Sprague-Dawley rats [1]; daily s.c. injection, 6 weeks) [g]	plasma cholesterol levels vs the V group (male Sprague-Dawley rats [4])	vasoconstriction in stenotic arteries [5]	Body, testis, and prostate weight compared to D, G, and V treated animals (male Sprague-Dawley rats [1]; rat, in vivo)
O=c1c(-c2ccc(O)cc2)coc2cc(O)ccc12 [D, daidzein]	367.89 g	11.66 g	significantly (P<0.05) lower	considerably (P<0.05) lower	17.980 μmol/g liver	3.114 μmol/g liver	5.678 μmol/g liver	2.563	12.857^a g	reduction in relative liver mass	approximately 33%	–	–	–	–	–
O=c1c(-c2ccc(O)cc2)coc2cc(O)cc(O)c12 [G, genistein]	363.00 g	11.19 g	–	considerably (P<0.05) lower	29.528 μmol/g liver	2.589 μmol/g liver	5.189 μmol/g liver	2.600	12.970^a g	reduction in relative liver mass	15%	.732 g	2.90	non-significant trend (P<0.5) toward lower	rapid inhibition	–
C[C@]12CC[C@@H]3c4ccc(O)cc4CC[C@H]3[C@@H]1CC[C@@H]2O [E, estradiol, reference compound]	242.50^a,b,c g	6.71^a,b,c g	–	–	32.186^c μmol/g liver	4.104^a,b μmol/g liver	6.722^a,b,c μmol/g liver	2.618	10.487^a,b,c g	–	approximately 33%	–	–	–	–	markedly (P<0.05) lower

Reference: patent publication US6592910B1, “Methods of treating clinical diseases with isoflavones” (Board of Trustees, Southern Illinois University, priority 1999, dated 2003)
